In patent publication US20250236589A1, “THERAPEUTIC PHENETHYLAMINE COMPOSITIONS AND METHODS OF USE” (Cybin IRL Limited, priority 2022, published 2025):
Read-outs that look alike come from different tables or passages of the source.

Key:
dopamine transporter (h) = dopamine transporter (h) (Homo sapiens (Human), UniProt Q01959); assay: Off-target screen, radioligand displacement at 10 μM; settings: read-out: binding at 10 μM
[1] = tested on: Platelet-Derived Growth Factor (PDGF) (m); assay: as above; assay type: binding, mouse
[2] = molecular target: Cholecystokinin CCK2 (CCKB) (h) (Homo sapiens (Human), UniProt P32239); assay: as above; settings: read-out: binding at 10 μM
Chain of Cholecystokinin CCK2 (CCKB) (h) (P32239 whole entry, looked up): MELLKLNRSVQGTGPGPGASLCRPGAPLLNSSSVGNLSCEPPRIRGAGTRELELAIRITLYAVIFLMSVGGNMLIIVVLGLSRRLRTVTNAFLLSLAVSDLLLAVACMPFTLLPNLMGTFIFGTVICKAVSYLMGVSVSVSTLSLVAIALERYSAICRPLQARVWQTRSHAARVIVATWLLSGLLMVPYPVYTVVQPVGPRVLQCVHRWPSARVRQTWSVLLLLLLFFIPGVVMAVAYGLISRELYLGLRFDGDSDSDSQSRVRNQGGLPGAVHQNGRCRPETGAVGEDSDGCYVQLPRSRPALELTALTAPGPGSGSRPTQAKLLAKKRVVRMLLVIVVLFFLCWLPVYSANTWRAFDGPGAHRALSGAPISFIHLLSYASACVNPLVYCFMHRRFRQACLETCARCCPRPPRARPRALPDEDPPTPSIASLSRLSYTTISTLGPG

[3] = tested on: Na+ channel (site 2) (rat cortex); assay: as above; assay type: binding; settings: antagonist radioligand
Muscarinic M4 (h) = Muscarinic M4 (h) (Homo sapiens (Human), UniProt P08173); assay: as above; assay type: binding; settings: antagonist radioligand
D5 (h) = D5 (h) (Homo sapiens (Human), UniProt P21918); assay: as above; settings: read-out: binding at 10 μM
5-HT5a (h) = 5-HT5a (h) (Homo sapiens (Human), UniProt P47898); assay: as above; settings: agonist, read-out: binding at 10 μM
Chain of 5-HT5a (h) (P47898 whole entry, looked up): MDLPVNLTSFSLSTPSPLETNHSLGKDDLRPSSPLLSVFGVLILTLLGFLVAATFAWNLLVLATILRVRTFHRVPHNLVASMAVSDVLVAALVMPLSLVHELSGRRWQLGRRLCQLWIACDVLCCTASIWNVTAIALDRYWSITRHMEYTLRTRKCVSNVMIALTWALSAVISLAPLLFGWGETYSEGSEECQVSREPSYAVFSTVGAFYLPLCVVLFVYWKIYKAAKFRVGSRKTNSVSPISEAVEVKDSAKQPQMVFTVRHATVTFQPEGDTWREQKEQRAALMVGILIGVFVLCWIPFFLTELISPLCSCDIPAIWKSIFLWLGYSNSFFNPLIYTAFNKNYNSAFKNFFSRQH

κ-opioid (h) = κ-opioid (h) (Homo sapiens (Human), UniProt P41145); assay: as above; settings: read-out: binding at 10 μM
Angiotensin AT1 (h) = Angiotensin AT1 (h) (Homo sapiens (Human), UniProt P30556); assay: as above; settings: read-out: binding at 10 μM
Chain of Angiotensin AT1 (h) (P30556 whole entry, looked up): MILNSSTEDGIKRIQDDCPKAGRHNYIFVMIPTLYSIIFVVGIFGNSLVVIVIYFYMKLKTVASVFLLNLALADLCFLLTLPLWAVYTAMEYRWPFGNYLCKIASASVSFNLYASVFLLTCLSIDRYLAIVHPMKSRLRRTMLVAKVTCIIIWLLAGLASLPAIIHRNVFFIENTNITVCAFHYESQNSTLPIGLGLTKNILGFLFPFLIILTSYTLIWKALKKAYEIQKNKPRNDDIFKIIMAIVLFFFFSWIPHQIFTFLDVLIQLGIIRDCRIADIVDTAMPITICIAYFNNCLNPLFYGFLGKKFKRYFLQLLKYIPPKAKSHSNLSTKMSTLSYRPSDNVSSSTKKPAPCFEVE

Tachykinin NK1 (h) = Tachykinin NK1 (h) (Homo sapiens (Human), UniProt P25103); assay: as above; settings: read-out: binding at 10 μM
Dopamine D3 (h) = Dopamine D3 (h) (Homo sapiens (Human), UniProt P35462); assay: as above; assay type: binding
Galanin GAL2 (h) = Galanin GAL2 (h) (Homo sapiens (Human), UniProt O43603); assay: as above; settings: read-out: binding at 10 μM
Chain of Galanin GAL2 (h) (O43603 whole entry, looked up): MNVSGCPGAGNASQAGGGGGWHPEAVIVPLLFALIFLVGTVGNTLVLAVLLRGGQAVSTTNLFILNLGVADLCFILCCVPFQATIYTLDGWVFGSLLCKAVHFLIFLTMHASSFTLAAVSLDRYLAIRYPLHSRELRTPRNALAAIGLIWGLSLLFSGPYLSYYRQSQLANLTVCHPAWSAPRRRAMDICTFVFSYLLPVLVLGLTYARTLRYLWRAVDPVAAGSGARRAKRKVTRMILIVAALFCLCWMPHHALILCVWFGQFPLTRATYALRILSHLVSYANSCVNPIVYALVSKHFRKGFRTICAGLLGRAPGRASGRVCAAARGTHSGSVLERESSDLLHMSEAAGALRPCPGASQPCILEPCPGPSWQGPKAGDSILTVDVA

PPARγ (h) = PPARγ (h) (Homo sapiens (Human), UniProt P37231); assay: as above; settings: read-out: binding at 10 μM
Chain of PPARγ (h) (P37231 whole entry, looked up): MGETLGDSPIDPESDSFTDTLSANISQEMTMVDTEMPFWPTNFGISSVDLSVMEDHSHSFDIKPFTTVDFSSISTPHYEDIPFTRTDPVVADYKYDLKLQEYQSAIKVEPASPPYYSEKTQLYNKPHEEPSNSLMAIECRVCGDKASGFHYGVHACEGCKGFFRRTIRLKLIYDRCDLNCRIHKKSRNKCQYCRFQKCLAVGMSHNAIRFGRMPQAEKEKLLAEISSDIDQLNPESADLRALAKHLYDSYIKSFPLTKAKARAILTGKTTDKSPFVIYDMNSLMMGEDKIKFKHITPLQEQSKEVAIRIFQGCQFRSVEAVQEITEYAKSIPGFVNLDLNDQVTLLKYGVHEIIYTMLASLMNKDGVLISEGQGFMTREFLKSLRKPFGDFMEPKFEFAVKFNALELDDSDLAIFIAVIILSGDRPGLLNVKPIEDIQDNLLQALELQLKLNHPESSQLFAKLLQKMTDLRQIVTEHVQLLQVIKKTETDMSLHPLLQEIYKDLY

[4] = molecular target: BZD (peripheral) (rat heart) (Rattus norvegicus (Rat), UniProt P16257); assay: as above; settings: read-out: binding at 10 μM
Chain of BZD (peripheral) (rat heart) (P16257 whole entry, looked up): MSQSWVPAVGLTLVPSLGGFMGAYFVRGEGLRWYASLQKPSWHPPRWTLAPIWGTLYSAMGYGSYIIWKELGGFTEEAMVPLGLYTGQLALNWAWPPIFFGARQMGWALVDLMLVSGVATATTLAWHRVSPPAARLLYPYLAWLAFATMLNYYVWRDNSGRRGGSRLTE

Vasopressin V1a (h) = Vasopressin V1a (h) (Homo sapiens (Human), UniProt P37288); assay: as above; settings: read-out: binding at 10 μM
TNF-α (h) = assay: as above; assay type: binding, human
Melanocortin MC4 (h) = Melanocortin MC4 (h) (Homo sapiens (Human), UniProt P32245); assay: as above; settings: read-out: binding at 10 μM
Chain of Melanocortin MC4 (h) (P32245 whole entry, looked up): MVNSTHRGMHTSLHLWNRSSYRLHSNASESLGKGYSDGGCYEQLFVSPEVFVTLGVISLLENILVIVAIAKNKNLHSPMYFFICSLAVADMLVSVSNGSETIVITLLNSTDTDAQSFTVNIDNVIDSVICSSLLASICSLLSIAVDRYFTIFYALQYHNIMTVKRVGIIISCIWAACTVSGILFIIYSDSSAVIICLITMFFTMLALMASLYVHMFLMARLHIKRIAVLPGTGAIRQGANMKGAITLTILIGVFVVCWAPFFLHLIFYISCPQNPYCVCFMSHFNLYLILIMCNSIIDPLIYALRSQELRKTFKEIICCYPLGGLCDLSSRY

Histamine H1 (h) = Histamine H1 (h) (Homo sapiens (Human), UniProt P35367); assay: as above; assay type: binding
Chain of Histamine H1 (h) (P35367 whole entry, looked up): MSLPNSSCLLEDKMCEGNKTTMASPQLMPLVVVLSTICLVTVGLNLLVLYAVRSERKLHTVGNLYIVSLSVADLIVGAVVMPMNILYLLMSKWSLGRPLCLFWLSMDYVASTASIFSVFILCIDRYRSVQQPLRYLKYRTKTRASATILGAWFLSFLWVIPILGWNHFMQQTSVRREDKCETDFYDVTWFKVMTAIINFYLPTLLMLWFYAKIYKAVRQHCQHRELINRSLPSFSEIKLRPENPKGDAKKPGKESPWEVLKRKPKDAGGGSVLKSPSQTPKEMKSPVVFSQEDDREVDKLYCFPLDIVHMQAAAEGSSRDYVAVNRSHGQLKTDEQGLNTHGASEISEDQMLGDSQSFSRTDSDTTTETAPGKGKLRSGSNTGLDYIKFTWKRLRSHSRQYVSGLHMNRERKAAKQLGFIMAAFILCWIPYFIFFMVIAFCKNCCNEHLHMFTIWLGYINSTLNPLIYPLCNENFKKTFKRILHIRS

Orphanin ORL1 (h) = Orphanin ORL1 (h) (Homo sapiens (Human), UniProt P41146); assay: as above; settings: read-out: binding at 10 μM
5-HT2C receptor [5] = molecular target: T1, 5-HT2C receptor (Homo sapiens (Human), UniProt P28335); assay: 5-HT2C agonist radioligand binding ([125I]DOI)
T1 sequence (P28335 whole entry, looked up): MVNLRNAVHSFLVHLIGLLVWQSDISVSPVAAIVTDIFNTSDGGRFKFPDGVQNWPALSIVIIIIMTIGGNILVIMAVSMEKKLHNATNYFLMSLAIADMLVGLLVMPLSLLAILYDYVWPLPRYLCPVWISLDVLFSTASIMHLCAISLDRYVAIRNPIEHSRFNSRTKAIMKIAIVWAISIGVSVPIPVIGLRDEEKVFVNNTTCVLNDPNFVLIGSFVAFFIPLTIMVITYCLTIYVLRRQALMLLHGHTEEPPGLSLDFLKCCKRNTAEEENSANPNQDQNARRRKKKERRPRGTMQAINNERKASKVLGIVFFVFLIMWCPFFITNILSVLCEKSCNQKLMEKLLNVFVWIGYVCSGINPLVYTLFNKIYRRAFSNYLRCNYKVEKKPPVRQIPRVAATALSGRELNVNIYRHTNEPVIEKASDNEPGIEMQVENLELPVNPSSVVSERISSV
Text: 5-HT2 Receptor Activity. […] Drug Test Anal 2012, 4 (7-8), 556-76. Ray, T. S., Psychedelics and the human receptorome. PLoS One 2010, 5 (2), e9019].

5-HT2C receptor [6] = molecular target: T1, 5-HT2C receptor; assay: 5-HT2C functional assay, IP1 (IPOne); assay type: cell-based; settings: for Emax: IP1 assay, relative to 5-HT
Protocol: 5-HT2A,2B,2C receptor-mediated Gq activation—canonical signaling pathways—[phosphoinositide hydrolysis leading to the production of inositol phosphate 1 (IP1, IPOne, Cisbio assay) or direct G-protein activation using TRUPATH technology]were measured as previously described (Porter, R. H. P., Benwell, K. R., Lamb, H., Malcolm, C. S., Allen, N. F., Revell, D. F., Adams, D. R. and Sheardown, M. J., 1999, Functional characterization of agonists at recombinant human 5-HT2a, 5HT2b and 5-HT2c receptors in CHO-K1 cells, Brit J Pharmacol 128, 13; Olsen, R. H. J., DiBerto, J. F., English, J. G. et al. TRUPATH, an open-source biosensor platform for interrogating the GPCR transducerome. […] Briefly, for the IPOne assay, for 5-HT2ARs, CHO-K1 or HEK-293 cells were incubated with test articles and 5-HT (positive control) in stimulation buffer containing LiCl. After incubation, cells were lysed and fluorescence acceptor and donor were added. FRET was measured after 60 min at room temperature using a microplate reader (Envision, Perkin Elmer). TRUPATH assays followed a similar workflow, except that different reagents were used, and LiCl was not included in the samples; the protocol was based on the report by Olsen, R. H. J. et al., cited above.

PCP (rat cortex) = assay: Off-target screen, radioligand displacement at 10 μM; assay type: binding
Endothelin ETA (h) = Endothelin ETA (h) (Homo sapiens (Human), UniProt P25101); assay: as above; settings: read-out: binding at 10 μM
Chain of Endothelin ETA (h) (P25101 whole entry, looked up): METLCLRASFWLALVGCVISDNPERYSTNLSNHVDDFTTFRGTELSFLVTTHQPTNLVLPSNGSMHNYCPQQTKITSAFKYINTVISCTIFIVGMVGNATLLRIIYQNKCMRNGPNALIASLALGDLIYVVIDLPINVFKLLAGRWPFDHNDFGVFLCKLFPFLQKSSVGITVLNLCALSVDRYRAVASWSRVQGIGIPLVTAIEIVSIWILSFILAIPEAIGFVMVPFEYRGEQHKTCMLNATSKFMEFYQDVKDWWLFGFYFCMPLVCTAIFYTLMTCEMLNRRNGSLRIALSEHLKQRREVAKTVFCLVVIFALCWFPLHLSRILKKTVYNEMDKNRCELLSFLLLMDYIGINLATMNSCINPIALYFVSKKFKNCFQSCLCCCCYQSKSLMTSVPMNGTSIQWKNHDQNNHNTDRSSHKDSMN

δ-opioid (h) = δ-opioid (h) (Homo sapiens (Human), UniProt P41143); assay: as above; settings: read-out: binding at 10 μM
Chain of δ-opioid (h) (P41143 whole entry, looked up): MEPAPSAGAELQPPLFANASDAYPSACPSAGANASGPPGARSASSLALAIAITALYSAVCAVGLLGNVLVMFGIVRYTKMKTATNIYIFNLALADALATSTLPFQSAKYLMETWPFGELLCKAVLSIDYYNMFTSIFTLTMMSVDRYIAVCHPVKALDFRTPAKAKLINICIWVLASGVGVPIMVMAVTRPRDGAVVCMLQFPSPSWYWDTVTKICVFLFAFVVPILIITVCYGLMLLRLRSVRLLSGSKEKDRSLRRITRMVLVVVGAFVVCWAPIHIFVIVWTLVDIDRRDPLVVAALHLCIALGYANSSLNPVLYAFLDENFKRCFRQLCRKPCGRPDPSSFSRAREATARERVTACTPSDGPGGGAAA

Cannabinoid CB1 (h) = Cannabinoid CB1 (h) (Homo sapiens (Human), UniProt P21554); assay: as above; assay type: binding
μ-opioid (h) = μ-opioid (h) (Homo sapiens (Human), UniProt P35372); assay: as above; assay type: binding
[7] = tested on: BB (nonselective) (rat cortex); assay: as above; assay type: binding
[8] = molecular target: Cholecystokinin CCK1 (CCKA) (h) (Homo sapiens (Human), UniProt P32238); assay: as above; settings: read-out: binding at 10 μM
Chain of Cholecystokinin CCK1 (CCKA) (h) (P32238 whole entry, looked up): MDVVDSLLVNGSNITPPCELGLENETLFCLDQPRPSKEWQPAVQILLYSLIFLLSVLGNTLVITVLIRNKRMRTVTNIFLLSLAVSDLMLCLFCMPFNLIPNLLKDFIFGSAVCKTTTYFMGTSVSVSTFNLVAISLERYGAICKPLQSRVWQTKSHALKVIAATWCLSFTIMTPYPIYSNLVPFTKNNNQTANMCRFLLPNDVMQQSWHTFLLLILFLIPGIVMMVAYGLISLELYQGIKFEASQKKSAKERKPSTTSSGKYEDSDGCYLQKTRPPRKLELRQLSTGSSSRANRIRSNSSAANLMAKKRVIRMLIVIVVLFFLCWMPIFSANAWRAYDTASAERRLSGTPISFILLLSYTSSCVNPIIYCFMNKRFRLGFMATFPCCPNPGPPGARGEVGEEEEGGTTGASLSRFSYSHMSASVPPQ

[9] = antagonist radioligand, read-out: inhibition at 10 μM
[10] = read-out: inhibition of radioligand bound at 10 μM

| Compound | inhibition at 10 µM (dopamine transporter (h)) [%] | binding at 10 μM [1] | inhibition at 10 µM [2] [%] | inhibition at 10 µM [3] [% inhibition at 10 μM] | inhibition at 10 µM (Muscarinic M4 (h)) [%] | inhibition at 10 µM (D5 (h)) [%] | inhibition at 10 µM (5-HT5a (h)) [%] | inhibition at 10 µM (κ-opioid (h)) [%] | inhibition at 10 µM (Angiotensin AT1 (h)) [%] | inhibition at 10 µM (Tachykinin NK1 (h)) [%] | inhibition at 10 µM (Galanin GAL2 (h)) [%] | inhibition at 10 µM (PPARγ (h)) [%] | inhibition at 10 µM [4] [%] | inhibition at 10 µM (Vasopressin V1a (h)) [%] | binding at 10 μM (TNF-α (h)) | inhibition at 10 µM (Melanocortin MC4 (h)) [%] | inhibition at 10 µM (Orphanin ORL1 (h)) [%] | EC50 (5-HT2C receptor [6]) [nM] | Emax (5-HT2C receptor [6]) [%] | binding at 10 μM (PCP (rat cortex)) | further results |
| --- | --- | --- | --- | --- | --- | --- | --- | --- | --- | --- | --- | --- | --- | --- | --- | --- | --- | --- | --- | --- | --- |
| COc1cc(CC(C)N)c(OC)cc1I (racemic) [DOI, (±)-2,5-dimethoxy-4-iodoamphetamine, reference compound] | < 50 | NB (inhibited less than 50% of radioligand bound to them, and therefore it can be concluded they do not bind (“no binding,” NB)) | < 50 | 53.5 | 75.7 | < 50 | < 50 | < 50 | < 50 | < 50 | < 50 | < 50 | < 50 | < 50 | NB (inhibited less than 50% of radioligand bound to them, and therefore it can be concluded they do not bind (“no binding,” NB)) | < 50 | < 50 | 8 | ~108 | NB (inhibited less than 50% of radioligand bound to them, and therefore it can be concluded they do not bind (“no binding,” NB)) | inhibition at 10 µM (Dopamine D3 (h); read-out: binding at 10 μM): < 50%; inhibition at 10 µM (Histamine H1 (h); [9]): 64.6%; Ki (5-HT2C receptor [5]): 0.48 nM; inhibition at 10 µM (Endothelin ETA (h)): < 50%; inhibition at 10 µM (δ-opioid (h)): < 50%; inhibition at 10 µM (Cannabinoid CB1 (h); read-out: binding at 10 μM): < 50%; inhibition at 10 µM (Cannabinoid CB1 (h); [10]): < 50%; inhibition at 10 µM (μ-opioid (h); agonist radioligand, read-out: inhibition at 10 μM): 65%; binding at 10 μM [7]: NB (inhibited less than 50% of radioligand bound to them, and therefore it can be concluded they do not bind (“no binding,” NB)); inhibition at 10 µM [8]: < 50% |
| COc1cc(SC(F)(F)F)c(OC)cc1CCN [Compound I-1, 2-(2,5-dimethoxy-4-((trifluoromethyl)thio)phenyl)ethan-1-amine] | < 50 | NB (inhibited less than 50% of radioligand bound to them, and therefore it can be concluded they do not bind (“no binding,” NB)) | < 50 | 68.4 | > 80 | < 50 | < 50 | < 50 | < 50 | < 50 | < 50 | < 50 | < 50 | < 50 | NB (inhibited less than 50% of radioligand bound to them, and therefore it can be concluded they do not bind (“no binding,” NB)) | < 50 | < 50 | 7.3 | ~99 | NB (inhibited less than 50% of radioligand bound to them, and therefore it can be concluded they do not bind (“no binding,” NB)) | inhibition at 10 µM (Dopamine D3 (h); [9]): 70.4%; inhibition at 10 µM (Histamine H1 (h); read-out: binding at 10 μM): < 50%; inhibition at 10 µM (5-HT2C receptor [5]): > 80%; binding selectivity for 5-HT2C over 5-HT2B (5-HT2C receptor [5]; Ki, [125I]DOI): ~12 fold; Ki (5-HT2C receptor [5]; radioligand [125I](±)DOI, read-out: 5-HT2C, Ki): 0.55 nM; activation selectivity for 5-HT2C over 5-HT2B (5-HT2C receptor [6]; EC50, IP1): ~12 fold; inhibition at 10 µM (Endothelin ETA (h)): < 50%; inhibition at 10 µM (δ-opioid (h)): < 50%; inhibition at 10 µM (Cannabinoid CB1 (h); read-out: binding at 10 μM): < 50%; inhibition at 10 µM (Cannabinoid CB1 (h); [10]): < 50%; inhibition at 10 µM (μ-opioid (h); read-out: binding at 10 μM): < 50%; binding at 10 μM [7]: NB (inhibited less than 50% of radioligand bound to them, and therefore it can be concluded they do not bind (“no binding,” NB)); inhibition at 10 µM [8]: < 50% |
